Assay results from ChEMBL document CHEMBL1149339, “Vasorelaxant activity of cyclic peptide, cyclosquamosin B, from Annona squamosa” (Bioorg Med Chem Lett, 2006).
Activity calls are given as the source filed them.

Tests used:
Assay type in all cases: functional, organism-based
Rattus norvegicus [1] = organism: Rattus norvegicus; assay: Vasorelaxant activity against norepinephrine-induced contraction of rat thoracic aortic ring with endothelium; conditions: Aorta
Rattus norvegicus [2] = organism: Rattus norvegicus; assay: Vasorelaxant activity against norepinephrine-induced contraction of rat thoracic aortic ring without endothelium; conditions: Aorta
Rattus norvegicus [3] = organism: Rattus norvegicus; assay: Inhibition of potassium ion depolarized calcium-induced contraction of rat aorta mediated by voltage dependent calcium channel at 10 uM
Rattus norvegicus [4] = organism: Rattus norvegicus; assay: Inhibition of norepinephrine-induced contraction in rat aorta mediated by receptor operated calcium channel in presence of nicardipine at 10 uM

Measured: Activity

CC[C@@H](C)[C@@H]1NC(=O)[C@@H]2CCCN2C(=O)[C@@H]2CCCN2C(=O)[C@H](CCC(N)=O)NC(=O)[C@H](CCSC)NC(=O)[C@H](CC(C)C)NC(=O)CN(C)C(=O)[C@H]([C@H](C)O)NC1=O
active: all assays above
